Reference: patent publication US6864093B1, “Method of identifying and treating invasive carcinomas” (University of Central Florida, priority 2000, dated 2005)

Legend:
Assay type in all cases: cell-based, human
[1] = tested on: prostasin gene promoter (DU-145 cells); experiment: demethylation of prostasin gene promoter, genomic Southern blot; conditions: DU-145, 8 days
Source text: (§1) High molecular weight genomic DNA was isolated from various cell lines as described in Chai, K X, Ward, D C, Chao, J, et al Molecular Clonings Sequence Analysis and Chromosomal Localization of the Human Protease Inhibitor 4 (kallistatin) gene (P14) Genomics 1994; 23:370-8. Genomic DNA frm each cell line was digested with the following restriction enzyme combinations:Xho I/BamH I (X/B), Xho I/BamH I/Hha (X/B/Hh), Xho I/BamH I/Aci I (X/B/A), Xho I/Bam H I.Bsa I (X/B/Bs),Xho I/Bam H I/Msp I(X/B/M) or Xho I/Bam H I/Hpa II(X/B/H) using 10 μg of DNA per digestion combination. The X/B cutting sites flank the CpG sies be to be investigated for differential methylation by the methylation-sensitive restriction endonucleases. The digests were resolved in a 0.8% agarose gel and analyzed by Southern blot hybridization as described in Chai, K X, Ward, D C, Chao, J et al. A nick translated prostasin promoter probe (bases 703-1,649) of the prostasin gene sequence, Genbank accession number U33446) was used for the hybridization. The base numbering of the prostasin gene sequence was described in Yu et al. […]

[2] = tested on: prostasin gene promoter (PC-3 cells); experiment: as above; conditions: PC-3, 8 days
Source text: as §1

[3] = tested on: prostasin gene promoter (MDA-MB-435s cells); experiment: as above; conditions: 500 nM, 8 days
Source text: as §1

[4] = tested on: prostasin mRNA (MDA-MB-435s cells); experiment: reactivation of prostasin expression, RT-PCR/Southern blot
Experimental: (§2) Cells grown to 80% confluence (in […] tissue culture dish) were lysed directly with 1 ml of the Trizol Reagent (life Technologies) and RNA was isolated according to the manufacturer's protocol. The human prostasin-specific RT-PCR/Southern blot analysis was performed as described in Yu, J X, and Chao,J Molecular Cloning, tissue-specific expression and cellular localization of human prostasin mRNA. J Biol Chem 1995; 270:12483-4. One microgram of total RNA was used in the RT-PCR with 2 human prostasin gene-specific oligonucleotide primers, and a Southern blot of the resolved RT-PCR samples was probed with a third prostasin gene-specific oligonucleotide, detecting an amplified 232 bp fragment. A co-amplification of the β-actin mRNA for control of RNA quality and quantity was performed as described in Chen Hodge and Guarda, et al.
(§3) For demethylation of prostasin gene promoter, MDA-MB-231 and MDA-MB-435s cells were seeded in 100 mm dishes at an initial density of 50% confluence and cultured in the presence of 500 nM 5-aza-2′-deoxycytidine (5-aza-2′dC; Sigma-Aldrich) for 8 days with renewal of medium and 5-aza-2′-dC performed at 2 day intervals. Genomic DNA was then isolated for Southern blot analysis as described. For reactivation of prostasin expression, MDA-MB-231 and MDA-MB-435s cells were seeded in 60 mm dishes at 80% confluence and cultured in the presence of 500 nM 5-aza-2′-dC for 24 hr, and were then treated for an additional 24 hr with either 1 μM trichostatin A (TSA; Sigma Aldrich) or an equal volume of 95% ethanol used to dissolve TSA. For measuring time-dependence of prostatin gene reactivation, cells were treated as described above but were harvested at 6 or 12 hr after the addition of TSA. RNA was isolated for prostasin-specifric RT-PCR/Southern blot analysis as described. The MCF-7 and the MDA-MB-453 cell ines were subjected tot the same 5-aza-2′-dC/TSA treatment and prostasin RT-PCR Southern blot analysis procedures.

[5] = tested on: prostasin mRNA (MDA-MB-231 cells); experiment: as above; conditions: MDA-MB-231, 500 nM 5-aza-2′-dC 24 hr followed by 95% ethanol (solvent for TSA)
Experimental: as §2, §3

[6] = tested on: prostasin mRNA (DU-145 cells); experiment: as above; conditions: DU-145, after 8 days 5-aza-2′-dC
Experimental: as §2
(§4) Du-145 and […] an additional 24 hours with either 1 μM trichostatin A (TSA, Sigma-Aldrich Co.) or an equal volume of 95% ethanol used to dissolve TSA. TNA was isolated for prostasin-specific RT-PCR/Southern blot analysis as described in example 1.

[7] = tested on: prostasin mRNA (PC-3 cells); experiment: as above; conditions: PC-3, after 8 days 5-aza-2′-dC
Experimental: as §2, §4

## Nc1ncn([C@H]2C[C@H](O)[C@@H](CO)O2)c(=O)n1 [5-aza-2′-dC, 5-aza-2′-deoxycytidine]
[1]
  demethylation of prostasin promoter: significant level of demethylation
[2]
  demethylation of prostasin promoter: significant level of demethylation
[3]
  demethylation of prostasin promoter-exon 1 region: significant level of demethylation
[4]; 500 nM 5-aza-2′-dC 24 hr followed by 95% ethanol (solvent for TSA)
  prostasin mRNA re-expression: did not result in prostasin mRNA re-expression
[4]; after 8-day 5-aza-2′-dC treatment
  prostasin mRNA expression: failed to detect prostasin mRNA expression
[5]
  prostasin mRNA re-expression: did not result in prostasin mRNA re-expression
[6]
  prostasin mRNA expression: no prostasin mRNA expression was detected
[7]
  prostasin mRNA expression: no prostasin mRNA expression was detected
